Test results reported in article PMC5065773 (Antiviral research, 2016).
Like-named read-outs stand apart in the source and are kept apart here.

Tests used:
DENV2 protease [1] = target: T1, DENV2 protease (Dengue virus type 2, UniProt P14340); assay: In vitro protease assay with fluorogenic substrate Bz-Nle-Lys-Arg-Arg-AMC; type: biochemical, dengue virus serotype 2 (DENV2); details: for Hill-Slope DENV 2 Pro: Hill slope of IC50 curve
WNV protease = WNV protease (West Nile virus, UniProt Q9Q6P4); assay: as above; type: biochemical; details: for Hill-slope WNV Pro: Hill slope of IC50 curve; for inhibition at 25 µM: read-out: Inhibition of WNVpro (%) At 25 μM
DENV 1 Pro = DENV 1 Pro (Dengue virus type 1, UniProt P17763); assay: as above; type: biochemical, dengue virus serotype 1 (DENV1); details: for Hill-slope DENV 1 Pro: Hill slope of IC50 curve
DENV 3 Pro = DENV 3 Pro (Dengue virus type 3, UniProt P27915); assay: as above; type: biochemical, dengue virus serotype 3 (DENV3); details: for Hill-slope DENV 3 Pro: Hill slope of IC50 curve
DENV 4 Pro = DENV 4 Pro (Dengue virus type 4, UniProt P09866); assay: as above; type: biochemical, dengue virus serotype 4 (DENV4); details: for Hill-slope DENV 4 Pro: Hill slope of IC50 curve
DENV2 protease [2] = target: T1, DENV2 protease; assay: Determination of Ki and kinetics of inhibition; type: biochemical, dengue virus serotype 2 (DENV2); details: for Mode of inhibition (Lineweaver-Burk plots): DENV2 protease
BHK-21 cells = assay: Cytotoxicity to BHK-21 cells; type: cell-based; details: for CC50: ~24 h, CCK-8
DENV2 = assay: Viral RNA copy number by qRT-PCR in DENV2-infected BHK-21 cells; type: cell-based; details: 24 h
DENV2 protease [3] = target: T1, DENV2 protease; assay: Tryptophan; type: binding, dengue virus serotype 2 (DENV2); details: for Competition with BPTI in fluorescence quenching: 50 μM compound and 10 μM BPTI; for Quenching of tryptophan fluorescence of DENV2 protease: 0.09-50 μM inhibitor, 2 μM protease
DENV2 replicon = assay: Renilla luciferase reporter replicon assay in stable BHK-21/DENV2 replicon cells; type: cell-based
WNVpro = details: read-out: Ki of BPTI against WNVpro; ref Aleshin et al., 2007; cited from earlier work
DENV2pro = details: read-out: Ki of BPTI against DENV2pro; ref Mueller et al., 2007; cited from earlier work

Sequence of WNV protease (Q9Q6P4 1428-1467): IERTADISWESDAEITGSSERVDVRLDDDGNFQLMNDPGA
Sequence of WNV protease (Q9Q6P4 1506-1683): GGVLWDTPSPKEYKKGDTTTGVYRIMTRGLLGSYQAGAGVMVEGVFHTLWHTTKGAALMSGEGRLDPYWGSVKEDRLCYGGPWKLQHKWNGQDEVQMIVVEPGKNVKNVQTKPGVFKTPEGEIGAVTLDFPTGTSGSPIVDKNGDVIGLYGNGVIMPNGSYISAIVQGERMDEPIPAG
Sequence of DENV 3 Pro (P27915 1474-1651): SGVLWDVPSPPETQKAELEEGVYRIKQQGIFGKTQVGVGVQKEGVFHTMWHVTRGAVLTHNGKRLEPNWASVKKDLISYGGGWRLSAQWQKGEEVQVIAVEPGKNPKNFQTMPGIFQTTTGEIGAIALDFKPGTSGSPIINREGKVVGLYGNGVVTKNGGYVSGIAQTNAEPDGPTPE
Sequence of DENV 4 Pro (P09866 1475-1652): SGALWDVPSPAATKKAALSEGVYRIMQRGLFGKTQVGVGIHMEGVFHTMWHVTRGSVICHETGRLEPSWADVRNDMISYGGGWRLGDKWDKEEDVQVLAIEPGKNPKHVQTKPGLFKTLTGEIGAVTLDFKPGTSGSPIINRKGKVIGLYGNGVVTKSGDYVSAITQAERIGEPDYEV
Sequence of DENV 1 Pro (P17763 1394-1445, looked up, natural form): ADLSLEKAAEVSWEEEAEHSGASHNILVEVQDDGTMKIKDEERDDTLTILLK
Sequence of DENV 1 Pro (P17763 1476-1660): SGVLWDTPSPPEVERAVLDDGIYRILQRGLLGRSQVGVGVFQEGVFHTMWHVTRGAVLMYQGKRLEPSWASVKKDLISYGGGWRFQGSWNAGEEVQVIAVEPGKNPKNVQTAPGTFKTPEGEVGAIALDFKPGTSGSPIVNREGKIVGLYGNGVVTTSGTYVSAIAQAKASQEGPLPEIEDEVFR
T1 sequence (P14340 1476-1653): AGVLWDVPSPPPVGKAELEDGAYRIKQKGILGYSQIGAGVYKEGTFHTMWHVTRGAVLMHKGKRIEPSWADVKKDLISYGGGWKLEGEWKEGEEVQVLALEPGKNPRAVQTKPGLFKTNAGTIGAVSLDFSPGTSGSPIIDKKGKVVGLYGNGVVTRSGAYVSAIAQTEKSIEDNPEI

Molecule | Hill-Slope DENV 2 Pro (DENV2 protease [1]) | Hill-slope WNV Pro (WNV protease) | Hill-slope DENV 1 Pro (DENV 1 Pro) | Hill-slope DENV 3 Pro (DENV 3 Pro) | Hill-slope DENV 4 Pro (DENV 4 Pro) | Mode of inhibition (Lineweaver-Burk plots) (DENV2 protease [2]) | CC50 (BHK-21 cells) [nM] | Inhibition of DENV2 viral RNA (qRT-PCR) vs DMSO control (DENV2; 2 μM compound) | Competition with BPTI in fluorescence quenching (DENV2 protease [3]) | Quenching of tryptophan fluorescence of DENV2 protease (DENV2 protease [3]) | IC50 (DENV2 protease [1]) [nM] | IC50 (WNV protease) [nM] | inhibition at 25 µM (WNV protease) [%] | IC50 (DENV 1 Pro) [nM] | IC50 (DENV 4 Pro) [nM] | Ki (DENV2 protease [2]) [nM] | other results
Tannic acid [Compound G] | 1.60±0.07 | 0.88±0.05 | 1.79±0.09 | 1.53±0.06 | 0.79±0.03 | competitive inhibition | 68100 | good inhibition | partially restore the fluorescence | quenched tryptophan fluorescence in a dose dependent manner |  |  |  |  |  |  | Inhibition of DENV2pro (%) At 10 μM (DENV2 protease [1]; 10 μM compound): 99%; Inhibition of DENV2pro (%) At 25 μM (DENV2 protease [1]; 25 μM compound): 101%; Inhibition of WNVpro (%) At 10 μM (WNV protease; 10 μM compound): 98%; Inhibition of WNVpro (%) At 25 μM (WNV protease; 25 μM compound): 96%; IC50 (WNV protease; read-out: IC50 WNV Pro, mean of duplicate experiments ± SEM): 120 ± 10 nM; Ki (DENV2 protease [2]; competitive inhibition model, 20 nM DENV2 protease): 340 ± 50 nM
Cc1ccc(C(=O)c2cc(O)c(O)c([N+](=O)[O-])c2)cc1 [Compound F, Tolcapone] | 1.51±0.07 | 1.58±0.05 | 1.26±0.10 | 1.60±0.08 | 1.45±0.05 | competitive inhibition | 29200 | good inhibition | did not compete with BPTI | quenched tryptophan fluorescence in a dose dependent manner | 980 ± 60 | 700 ± 40 | 95 | 1150 ± 100 | 640 ± 30 | 220 ± 30 | EC50 (DENV2 replicon; Dengue virus, DENV2, BHK-21, 24 h, read-out: EC50 (μM) DENV2 Replicon): 2.29 ± 0.3 µM; Inhibition of DENV2 replicon replication (DENV2 replicon; screened at 5, 10 and 25 μM vs 1% DMSO control): inhibit DENV2 replication
Cc1ccc(C(=O)Nc2ccc(S(=O)(=O)O)c3cc(S(=O)(=O)O)cc(S(=O)(=O)O)c23)cc1NC(=O)c1cccc(NC(=O)Nc2cccc(C(=O)Nc3cc(C(=O)Nc4ccc(S(=O)(=O)O)c5cc(S(=O)(=O)O)cc(S(=O)(=O)O)c45)ccc3C)c2)c1 [Compound H, Suramin] | 0.97±0.04 | 1.29±0.03 | 0.92±0.05 | 1.05±0.04 | 1.25±0.12 |  |  |  |  | failed to quench the tryptophan fluorescence | 2660 ± 190 | 3240 ± 110 | 73 | 2760 ± 250 | 3730 ± 140 | 870 ± 140 | inhibition at 10 µM (DENV2 protease [1]; read-out: Inhibition of DENV2pro (%) At 10 μM): 72%; inhibition at 25 µM (DENV2 protease [1]; read-out: Inhibition of DENV2pro (%) At 25 μM): 85%; inhibition at 10 µM (WNV protease; read-out: Inhibition of WNVpro (%) At 10 μM): 58%; IC50 (DENV 3 Pro): 3250 ± 180 nM; Cytotoxicity at the highest concentration tested (BHK-21 cells; ~ 100 μM, 24 h): did not exhibit any cytotoxicity; Inhibition of DENV2 viral RNA (qRT-PCR) vs DMSO control (DENV2; 10 μM compound): good inhibition
Bovine pancreatic trypsin inhibitor [BPTI] |  |  |  |  |  |  |  |  |  |  |  |  |  |  |  |  | Ki (WNVpro): 24 nM; Ki (DENV2pro): 26 nM
